Assay results taken from patent EP1981504B1, “THIADIAZOLE DERIVATIVES FOR THE TREATMENT OF NEURO DEGENERATIVE DISEASES” (NV reMYND, priority 2006, dated 2007).
Values after ≈ are worked out from the molar mass of the structure shown.

Tested on: M17-SYNwt cells
Experiment: α-synuclein cytotoxicity assay (LDH leakage from paraquat-treated α-synuclein over-expressing neuroblastoma cells)
Type: cell-based, human
Details: paraquat 32 mM, 40 hours, LDH release; for EC50: Homo sapiens, Neuroblastoma cell; for EC50 / EC50 (µg/mL): 10 point curves in duplicate; for %I: percent inhibition of synuclein cytotoxicity at most effective concentration of test compound, relative to untreated paraquat cells
Outline: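 M17 neuroblastoma cells over-expressing wild-type α-synuclein were challenged with paraquat, and cytotoxicity was read as LDH release. Protection was expressed as percent reduction of paraquat-induced LDH release relative to untreated paraquat cells and control cells. Actives were retested in 10-point duplicate dose responses.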

## O=C(NCCN1CCN(c2nc(Cc3ccc(F)cc3)ns2)CC1)c1ccccc1 [Compound 104, N-{2-[4-[3-(4-fluorobenzyl)-1,2,4-thiadiazol-5-yl]piperazin-1-yl]ethyl}benzamide]
  EC50: 3.82 mg/L (≈ 8.98 µM)
  %I: 65%

## CC1CN(c2nc(Cc3ccc(F)cc3)ns2)CCN1S(=O)(=O)c1ccccc1 (centres unmarked) [Compound 47, 1-phenylsulfonyl-4-[3-(4-fluorobenzyl)-1,2,4-thiadiazol-5-yl]-2-methylpiperazine]
  %I: 129%

## CCc1ccc(C(=O)N2CCN(c3nc(Cc4cccc(OC)c4)ns3)CC2C)cc1 (centres unmarked) [Compound 143, 1-(4-ethylbenzoyl)-4-[3-(3-methoxybenzyl)-1,2,4-thiadiazol-5-yl]-2-methylpiperazine]
  EC50: 0.56 mg/L (≈ 1.28 µM)
  %I: 89%

## CCc1ccc(C(=O)N2CCN(c3nc(Cc4ccc(F)cc4)ns3)CC2C)cc1 (centres unmarked) [Compound 116, 1-(4-ethylbenzoyl)-4-[3-(4-fluorobenzyl)-1,2,4-thiadiazol-5-yl]-2-methylpiperazine]
  EC50: 0.0522 mg/L (≈ 0.123 µM)
  %I: 71%

## Cc1ccc(Cc2nsc(N3CCN(S(=O)(=O)Cc4ccccc4)CC3)n2)cc1 [Compound 77, 1-(benzylsulfonyl)-4-[3-(4-methylbenzyl)-1,2,4-thiadiazol-5-yl]piperazine]
  %I: 81%

## CC(=O)Nc1ccc(S(=O)(=O)N2CCN(c3nc(Cc4ccc(C)cc4)ns3)CC2C)cc1 (centres unmarked) [Compound 48, 1-[4-acetamidophenylsulfonyl]-4-[3-(4-methylbenzyl)-1,2,4-thiadiazof-5-yl]-2-methylpiperazine]
  EC50: 0.00844 mg/L (≈ 0.0174 µM)
  %I: 91%

## CCC(C(=O)N1CCN(c2nc(Cc3ccc(F)cc3)ns2)CC1C)c1ccccc1 (centres unmarked) [Compound 8, 1-(2-phenylbutanoyl)-4-[3-(4-fluorobenzyl)-1,2,4-thiadiazol-5-yl]-2-methylpiperazine]
  EC50: 1.49 mg/L (≈ 3.4 µM)
  %I: 71%

## CC1CN(c2nc(Cc3ccc(F)cc3)ns2)CCN1C(=O)c1ccc(-c2ccccc2)cc1 (centres unmarked) [Compound 129, 1-(1,1'-biphenyl-4-ylcarbonyl)-4-[3-(4-fluorobenzyl)-1,2,4-thiadiazol-5-yl]-2-methylpiperazine]
  EC50: 0.24 mg/L (≈ 0.508 µM)
  %I: 61%

## 1-(3-methylbenzoyl)-4-[3-(4-methylbenzyl)-1,2,4-thiadiazol-5-yl]-2-methylpiperazine [Compound 144]
  EC50 (µg/mL): 0,56 µg/mL
  %I: 64%

## Cc1ccc(Cc2nsc(N3CCN(C/C=C/c4ccccc4)CC3)n2)cc1 [Compound 91, 1-[3-phenylprop-2-enyl]-4-[3-(4-methylbenzyl)-1,2,4-thiadiazol-5-yl]piperazine]
  EC50: 0.71 mg/L (≈ 1.82 µM)
  %I: 90%

## Cc1ccc(Cc2nsc(N3CCN(S(=O)(=O)c4ccc(Br)cc4)CC3)n2)cc1 [Compound 64, 1-[4-bromophenylsulfonyl]-4-[3-(4-methylbenzyl)-1,2,4-thiadiazol-5-yl]piperazine]
  %I: 58%

## CCS(=O)(=O)N1CCN(c2nc(Cc3ccc(Cl)cc3)ns2)CC1 [Compound 84, 1-(ethylsulfonyl)-4-[3-(4-chlorobenzyl)-1,2,4-thiadiazol-5-yl]piperazine]
  EC50: 3.48 mg/L (≈ 8.99 µM)
  %I: 53%

## CC(=O)Nc1ccc(S(=O)(=O)N2CCN(c3nc(Cc4ccc(C)cc4)ns3)CC2)cc1 [Compound 49, 1-[4-acetamidophenylsulfonyl]-4-[3-(4-methylbenzyl)-1,2,4-thiadiazol-5-yl]piperazine]
  EC50: 0.000106 mg/L (≈ 0.000225 µM)
  %I: 77%

## CC1CN(c2nc(Cc3ccc(F)cc3)ns2)CCN1C(=O)c1ccc(F)cc1 (centres unmarked) [Compound 127, 1-(4-fluorobenzoyl)-4-[3-(4-fluorobenzyl)-1,2,4-thiadiazol-5-yl]-2-methylpiperazine]
  EC50: 0.23 mg/L (≈ 0.555 µM)
  %I: 108%

## COc1ccc(S(=O)(=O)N2CCN(c3nc(Cc4ccc(F)c(C)c4)ns3)CC2)cc1 [Compound 204]
  EC50: 0.001 mg/L (≈ 0.00216 µM)
  %I: 90%

## CC1CN(c2nc(Cc3ccc(F)cc3)ns2)CCN1C(=O)c1cccc(F)c1 (centres unmarked) [Compound 179, 1-(3-fluorobenzoyl)-4-[3-(4-fluorobenzyl)-1,2,4-thiadiazol-5-yl]-2-methylpiperazine]
  %I: 68%

## CCCCCCCCS(=O)(=O)N1CCN(c2nc(Cc3ccc(C)cc3)ns2)CC1 [Compound 82, 1-(octylsulfonyl)-4-[3-(4-methylbenzyl)-1,2,4-thiadiazol-5-yl]piperazine]
  EC50: 1.58 mg/L (≈ 3.51 µM)
  %I: 50%

## CC1CN(c2nc(Cc3ccc(F)cc3)ns2)CCN1C(=O)c1ccc([N+](=O)[O-])cc1 (centres unmarked) [Compound 184, 1-(4-nitrobenzoyl)-4-[3-(4-fluorobenzyl)-1,2,4-thiadiazol-5-yl]-2-methylpiperazine]
  %I: 52%

## O=C(NCCN1CCN(c2nc(Cc3ccc(F)cc3)ns2)CC1)c1ccc(F)cc1 [Compound 102, 4-fluoro-N-{2-[4-[3-(4-fluorobenzyl)-1,2,4-thiadiazol-5-yl]piperazin-1-yl]ethyl}benzamide]
  EC50: 1.99 mg/L (≈ 4.49 µM)
  %I: 80%

## N-(2,6-dichlorophenyl)-4-[3-(4-fluorobenzyl)-1,2,4-thiadiazol-5-yl]-2-methylpiperazine-1-carboxamide [Compound 21]
  EC50 (µg/mL): 0,79 µg/mL
  %I: 70%

## Cc1ccc(Cc2nsc(N3CCN(S(=O)(=O)c4cccc5ccccc45)CC3)n2)cc1 [Compound 35, 1-[1-naphtylsulfonyl]-4-[3-(4-methylbenzyl)-1,2,4-thiadiazol-5-yl]piperazine]
  EC50: 0.0472 mg/L (≈ 0.102 µM)
  %I: 47%

## Cc1ccc(Cc2nsc(N3CCN(S(=O)(=O)c4ccc(C(C)(C)C)cc4)CC3)n2)cc1 [Compound 67, 1-[4-tert-butylphenylsulfonyl]-4-[3-(4-methylbenzyl)-1,2,4-thiadiazol-5-yl]piperazine]
  %I: 41%

## Cc1ccc(S(=O)(=O)N2CCN(c3nc(Cc4ccc(Cl)cc4)ns3)CC2)cc1 [Compound 63, 1-[4-methylphenylsulfonyl]-4-[3-(4-chlorobenzyl)-1,2,4-thiadiazol-5-yl]piperazine]
  EC50: 0.0807 mg/L (≈ 0.18 µM)
  %I: 83%

## COc1cccc(Cc2nsc(N3CCN(S(=O)(=O)c4ccc(Br)cc4)CC3)n2)c1 [Compound 207]
  EC50: 0.028 mg/L (≈ 0.055 µM)
  %I: 83%

## 1-[4-bromophenylsulfonyl]-4-[3-(4-methylbenzyl)-1,2,4-thiadiazol-5-yl]-3-methylpiperazine [Compound 40]
  EC50 (µg/mL): 0,099855 µg/mL
  %I: 77%

## CC1CN(c2nc(Cc3ccc(F)cc3)ns2)CCN1C(=O)Nc1ccc(F)c(F)c1 (centres unmarked) [Compound 26, N-(3,4-difluorophenyl)-4-[3-(4-fluorobenzyl)-1,2,4-thiadiazol-5-yl]-2-methylpiperazine-1-carboxamide]
  %I: 70%

## COc1ccc(S(=O)(=O)N2CCN(c3nc(Cc4ccc(C)cc4)ns3)CC2C)cc1 (centres unmarked) [Compound 60, 1-[4-methoxyphenylsulfonyl]-4-[3-(4-methylbenzyl)-1,2,4-thiadiazol-5-yl]-2-methylpiperazine]
  EC50: 0.0013 mg/L (≈ 0.00283 µM)
  %I: 93%

## Fc1ccc(Cc2nsc(N3CCN(C/C=C/c4ccccc4)CC3)n2)cc1 [Compound 93, 1-[3-phenylprop-2-enyl]-4-[3-(4-fluorobenzyl)-1,2,4-thiadiazol-5-yl]piperazine]
  EC50: 1.99 mg/L (≈ 5.04 µM)
  %I: 91%

## Cc1ccc(Cc2nsc(N3CCN(S(=O)(=O)c4ccc5ccccc5c4)CC3)n2)cc1 [Compound 65, 1-[2-naphtylsulfonyl]-4-[3-(4-methylbenzyl)-1,2,4-thiadiazol-5-yl]piperazine]
  EC50: 0.0393 mg/L (≈ 0.0845 µM)
  %I: 78%

## Fc1ccc(Cc2nsc(N3CCN(Cc4ccccc4)CC3)n2)cc1 [Compound 113, 1-benzyl-4-[3-(4-fluorobenzyl)-1,2,4-thiadiazol-5-yl]piperazine]
  EC50: 1.54 mg/L (≈ 4.18 µM)
  %I: 65%

## O=C(Nc1ccccc1C(F)(F)F)N1CCN(c2nc(Cc3ccc(F)cc3)ns2)CC1 [Compound 17, N-(2-trifluoromethylphenyl)-4-[3-(4-fluorobenzyl)-1,2,4-thiadiazol-5-yl]piperazine-1-carboxamide]
  %I: 46%

## Fc1ccc(Cc2nsc(N3CCN(c4cccc(C(F)(F)F)c4)CC3)n2)cc1 [Compound 188, 1-(3-trifluoromethylphenyl)-4-[3-(4-fluorobenzyl)-1,2,4-thiadiazol-5-yl]piperazine]
  %I: 96%

## COc1ccc(Cc2nsc(N3CCN(S(=O)(=O)c4ccc(OC)cc4)CC3)n2)cc1 [Compound 205]
  EC50: 0.0011 mg/L (≈ 0.00239 µM)
  %I: 53%

## O=C(c1cccc(F)c1)N1CCN(c2nc(Cc3ccc(Cl)cc3)ns2)CC1 [Compound 157, 1-(3-fluorobenzoyl)-4-[3-(4-chlorobenzyl)-1,2,4-thiadiazol-5-yl]piperazine]
  EC50: 1.7 mg/L (≈ 4.08 µM)
  %I: 70%

## Cc1ccccc1NC(=O)N1CCN(c2nc(Cc3ccc(F)cc3)ns2)CC1C (centres unmarked) [Compound 10, N-(2-methylphenyl)-4-[3-(4-fluorobenzyl)-1,2,4-thiadiazol-5-yl]-2-methylpiperazine-1-carboxamide]
  EC50: 0.6 mg/L (≈ 1.41 µM)
  %I: 72%

## 1-(4-methoxybenzoyl)-4-[3-(4-methylbenzyl)-1,2,4-thiadiazol-5-yl]-2-methylpiperazine [Compound 130]
  EC50 (µg/mL): 0,25 µg/mL
  %I: 118%

## Cc1ccccc1C(=O)NCCN1CCN(c2nc(Cc3ccc(F)cc3)ns2)CC1 [Compound 99, 2-methyl-N-{2-[4-[3-(4-fluorobenzyl)-1,2,4-thiadiazol-5-yl]piperazin-1-yl]ethyl}benzamide]
  EC50: 1.58 mg/L (≈ 3.59 µM)
  %I: 97%

## Cc1ccccc1C(=O)N1CCN(c2nc(Cc3ccc(F)cc3)ns2)CC1C (centres unmarked) [Compound 140, 1-(2-methylbenzoyl)-4-[3-(4-fluorobenzyl)-1,2,4-thiadiazol-5-yl]-2-methylpiperazine]
  EC50: 0.45 mg/L (≈ 1.1 µM)
  %I: 56%

## CC(C)(C)c1ccc(S(=O)(=O)N2CCN(c3nc(Cc4ccc(F)cc4)ns3)CC2)cc1 [Compound 30, 1-[4-tert-butylphenylsulfonyl]-4-[3-(4-fluorobenzyl)-1,2,4-thiadiazol-5-yl]piperazine]
  %I: 51%
